Measured values from ChEMBL document CHEMBL4507265 (2021).

Experiments:
[1] = target: Mitogen-activated protein kinase kinase kinase 11 (Homo sapiens) (UniProt Q16584); details: Compound concentration 1000.0 nM
[2] = target: Mitogen-activated protein kinase kinase kinase kinase 4 (Homo sapiens) (UniProt O95819); details: Compound concentration 1000.0 nM
[3] = target: Mitogen-activated protein kinase 11 (Homo sapiens) (UniProt Q15759); details: Compound concentration 1000.0 nM
[4] = tested on: Tyrosine-protein kinase ABL1 (Homo sapiens), P00519 [H396P]; details: Compound concentration 1000.0 nM
[5] = target: Serine/threonine-protein kinase pim-1 (Homo sapiens) (UniProt P11309); details: Compound concentration 1000.0 nM
[6] = target: Protein kinase C theta type (Homo sapiens) (UniProt Q04759); details: Compound concentration 1000.0 nM
[7] = tested on: Tyrosine-protein kinase ABL1 (Homo sapiens), P00519 [F317I]; details: Compound concentration 1000.0 nM
[8] = target: Tyrosine-protein kinase ITK/TSK (Homo sapiens) (UniProt Q08881); details: Compound concentration 1000.0 nM
[9] = target: Mitogen-activated protein kinase kinase kinase 4 (Homo sapiens) (UniProt Q9Y6R4); details: Compound concentration 1000.0 nM
[10] = target: Serine/threonine-protein kinase VRK2 (Homo sapiens) (UniProt Q86Y07); details: Compound concentration 1000.0 nM
[11] = target: Bone morphogenetic protein receptor type-1A (Homo sapiens) (UniProt P36894); details: Compound concentration 1000.0 nM
[12] = target: MAP/microtubule affinity-regulating kinase 4 (Homo sapiens) (UniProt Q96L34); details: Compound concentration 1000.0 nM
[13] = target: Tyrosine-protein kinase Blk (Homo sapiens) (UniProt P51451); details: Compound concentration 1000.0 nM
[14] = tested on: Tyrosine-protein kinase ABL1 (Homo sapiens), P00519 [Q252H]; details: Compound concentration 1000.0 nM
[15] = target: Glycogen synthase kinase-3 alpha (Homo sapiens) (UniProt P49840); details: Compound concentration 1000.0 nM
[16] = target: Serine/threonine-protein kinase ULK1 (Homo sapiens) (UniProt O75385); details: Compound concentration 1000.0 nM
[17] = tested on: Epidermal growth factor receptor (Homo sapiens), P00533 [UNDEFINED MUTATION]; details: Compound concentration 1000.0 nM
[18] = target: Maternal embryonic leucine zipper kinase (Homo sapiens) (UniProt Q14680); details: Compound concentration 1000.0 nM
[19] = target: Dual specificity tyrosine-phosphorylation-regulated kinase 1A (Homo sapiens) (UniProt Q13627); details: Compound concentration 1000.0 nM
[20] = target: NT-3 growth factor receptor (Homo sapiens) (UniProt Q16288); details: Compound concentration 1000.0 nM
[21] = target: D(3) dopamine receptor (Homo sapiens) (UniProt P35462); details: Compound concentration 10.0 uM
[22] = target: Interleukin-1 receptor-associated kinase 4 (Homo sapiens) (UniProt Q9NWZ3); details: Compound concentration 1000.0 nM
[23] = target: Serine/threonine-protein kinase PLK3 (Homo sapiens) (UniProt Q9H4B4); details: Compound concentration 1000.0 nM
[24] = target: Insulin receptor-related protein (Homo sapiens) (UniProt P14616); details: Compound concentration 1000.0 nM
[25] = target: Fibroblast growth factor receptor 4 (Homo sapiens) (UniProt P22455); details: Compound concentration 1000.0 nM
[26] = target: Ephrin type-A receptor 3 (Homo sapiens) (UniProt P29320); details: Compound concentration 1000.0 nM
[27] = target: Serine/threonine-protein kinase PRP4 homolog (Homo sapiens) (UniProt Q13523); details: Compound concentration 1000.0 nM
[28] = tested on: Receptor-type tyrosine-protein kinase FLT3 (Homo sapiens), P36888 [R834Q]; details: Compound concentration 1000.0 nM
[29] = target: Phosphatidylinositol 4,5-bisphosphate 3-kinase catalytic subunit beta isoform (Homo sapiens) (UniProt P42338); details: Compound concentration 1000.0 nM
[30] = target: Ribosomal protein S6 kinase beta-1 (Homo sapiens) (UniProt P23443); details: Compound concentration 1000.0 nM
[31] = target: Tyrosine-protein kinase JAK3 (Homo sapiens) (UniProt P52333); details: Compound concentration 1000.0 nM
[32] = target: Wee1-like protein kinase (Homo sapiens) (UniProt P30291); details: Compound concentration 1000.0 nM
[33] = target: Activin receptor type-2A (Homo sapiens) (UniProt P27037); details: Compound concentration 1000.0 nM
[34] = target: Sodium-dependent serotonin transporter (Homo sapiens) (UniProt P31645); details: Compound concentration 10.0 uM
[35] = target: Phosphatidylinositol 4,5-bisphosphate 3-kinase catalytic subunit gamma isoform (Homo sapiens) (UniProt P48736); details: Compound concentration 1000.0 nM
[36] = target: Mitogen-activated protein kinase 9 (Homo sapiens) (UniProt P45984); details: Compound concentration 1000.0 nM
[37] = target: Serine/threonine-protein kinase 4 (Homo sapiens) (UniProt Q13043); details: Compound concentration 1000.0 nM
[38] = target: Tyrosine-protein kinase HCK (Homo sapiens) (UniProt P08631); details: Compound concentration 1000.0 nM
[39] = target: Macrophage-stimulating protein receptor (Homo sapiens) (UniProt Q04912); details: Compound concentration 1000.0 nM
[40] = target: Proto-oncogene tyrosine-protein kinase ROS (Homo sapiens) (UniProt P08922); details: Compound concentration 1000.0 nM
[41] = target: Receptor tyrosine-protein kinase erbB-2 (Homo sapiens) (UniProt P04626); details: Compound concentration 1000.0 nM
[42] = target: Tyrosine-protein kinase ABL1 (Homo sapiens) (UniProt P00519); details: Compound concentration 1000.0 nM
[43] = target: Serine/threonine-protein kinase 32B (Homo sapiens) (UniProt Q9NY57); details: Compound concentration 1000.0 nM
[44] = target: Activin receptor type-1B (Homo sapiens) (UniProt P36896); details: Compound concentration 1000.0 nM
[45] = target: Serine/threonine-protein kinase SIK1 (Homo sapiens) (UniProt P57059); details: Compound concentration 1000.0 nM

Mitogen-activated protein kinase kinase kinase 11 (Homo sapiens), sequence (Q16584 whole entry, looked up): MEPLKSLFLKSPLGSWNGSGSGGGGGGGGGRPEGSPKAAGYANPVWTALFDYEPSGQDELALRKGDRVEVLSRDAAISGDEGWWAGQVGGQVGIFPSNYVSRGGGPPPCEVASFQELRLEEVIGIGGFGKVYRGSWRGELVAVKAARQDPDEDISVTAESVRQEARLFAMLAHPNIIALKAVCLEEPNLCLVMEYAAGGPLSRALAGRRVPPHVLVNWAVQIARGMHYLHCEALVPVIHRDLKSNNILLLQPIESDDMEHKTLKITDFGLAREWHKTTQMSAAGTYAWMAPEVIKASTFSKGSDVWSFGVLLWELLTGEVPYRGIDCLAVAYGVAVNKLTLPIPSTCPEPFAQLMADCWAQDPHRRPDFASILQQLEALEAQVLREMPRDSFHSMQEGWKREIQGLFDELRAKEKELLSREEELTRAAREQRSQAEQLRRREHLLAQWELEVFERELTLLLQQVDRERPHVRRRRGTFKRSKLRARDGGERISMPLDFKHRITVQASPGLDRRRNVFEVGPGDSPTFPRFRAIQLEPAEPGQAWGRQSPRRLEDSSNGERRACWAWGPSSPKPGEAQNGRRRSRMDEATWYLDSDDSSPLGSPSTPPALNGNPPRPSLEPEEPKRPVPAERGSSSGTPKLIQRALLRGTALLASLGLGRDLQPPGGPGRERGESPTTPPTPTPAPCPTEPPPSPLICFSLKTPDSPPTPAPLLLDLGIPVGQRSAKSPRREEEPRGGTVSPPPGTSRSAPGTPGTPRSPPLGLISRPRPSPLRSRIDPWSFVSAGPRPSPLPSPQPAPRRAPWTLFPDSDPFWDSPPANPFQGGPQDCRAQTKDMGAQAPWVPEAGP
Phosphatidylinositol 4,5-bisphosphate 3-kinase catalytic subunit gamma isoform (Homo sapiens), sequence (P48736 whole entry, looked up, canonical isoform): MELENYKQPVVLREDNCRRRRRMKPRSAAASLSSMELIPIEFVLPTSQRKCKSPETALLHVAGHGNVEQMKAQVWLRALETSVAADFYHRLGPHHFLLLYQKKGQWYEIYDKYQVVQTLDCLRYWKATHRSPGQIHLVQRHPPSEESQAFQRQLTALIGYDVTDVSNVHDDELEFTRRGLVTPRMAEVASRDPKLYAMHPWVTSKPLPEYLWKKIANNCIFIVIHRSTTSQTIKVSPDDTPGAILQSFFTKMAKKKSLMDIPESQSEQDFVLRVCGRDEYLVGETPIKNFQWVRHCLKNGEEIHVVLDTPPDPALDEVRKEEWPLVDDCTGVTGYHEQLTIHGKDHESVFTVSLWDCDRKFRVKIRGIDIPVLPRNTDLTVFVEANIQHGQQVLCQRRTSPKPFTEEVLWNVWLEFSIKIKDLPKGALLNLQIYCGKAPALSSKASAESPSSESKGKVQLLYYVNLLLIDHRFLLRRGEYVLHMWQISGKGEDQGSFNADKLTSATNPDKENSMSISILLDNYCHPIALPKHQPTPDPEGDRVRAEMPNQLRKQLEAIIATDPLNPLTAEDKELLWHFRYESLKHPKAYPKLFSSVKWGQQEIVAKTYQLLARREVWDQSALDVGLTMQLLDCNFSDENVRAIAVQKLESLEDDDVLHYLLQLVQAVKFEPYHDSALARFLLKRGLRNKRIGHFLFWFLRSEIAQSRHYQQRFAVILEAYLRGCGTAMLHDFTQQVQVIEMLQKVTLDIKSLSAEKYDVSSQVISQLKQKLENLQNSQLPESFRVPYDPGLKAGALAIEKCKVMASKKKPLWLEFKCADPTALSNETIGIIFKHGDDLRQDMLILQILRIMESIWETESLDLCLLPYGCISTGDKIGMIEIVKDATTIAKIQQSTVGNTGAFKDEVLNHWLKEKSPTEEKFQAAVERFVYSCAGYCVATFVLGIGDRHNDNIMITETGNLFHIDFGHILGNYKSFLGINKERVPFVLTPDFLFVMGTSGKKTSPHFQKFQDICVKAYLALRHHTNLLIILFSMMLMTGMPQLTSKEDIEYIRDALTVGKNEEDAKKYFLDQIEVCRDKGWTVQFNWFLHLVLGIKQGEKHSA
Ribosomal protein S6 kinase beta-1 (Homo sapiens), sequence (P23443 whole entry, looked up): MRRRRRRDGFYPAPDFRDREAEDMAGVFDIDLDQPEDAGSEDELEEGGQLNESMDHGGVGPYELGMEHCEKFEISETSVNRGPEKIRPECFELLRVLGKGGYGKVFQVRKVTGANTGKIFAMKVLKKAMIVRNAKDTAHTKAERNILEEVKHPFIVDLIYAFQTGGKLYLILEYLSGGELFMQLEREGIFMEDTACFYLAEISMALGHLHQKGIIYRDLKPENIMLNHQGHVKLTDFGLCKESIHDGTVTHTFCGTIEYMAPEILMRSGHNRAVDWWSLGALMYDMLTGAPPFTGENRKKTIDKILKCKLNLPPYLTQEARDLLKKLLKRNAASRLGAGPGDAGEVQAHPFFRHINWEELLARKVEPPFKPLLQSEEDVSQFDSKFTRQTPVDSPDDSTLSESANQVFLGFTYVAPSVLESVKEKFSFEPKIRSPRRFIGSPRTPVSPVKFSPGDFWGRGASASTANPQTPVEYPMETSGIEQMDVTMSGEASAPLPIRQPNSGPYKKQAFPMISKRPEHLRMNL
Ephrin type-A receptor 3 (Homo sapiens), sequence (P29320 whole entry): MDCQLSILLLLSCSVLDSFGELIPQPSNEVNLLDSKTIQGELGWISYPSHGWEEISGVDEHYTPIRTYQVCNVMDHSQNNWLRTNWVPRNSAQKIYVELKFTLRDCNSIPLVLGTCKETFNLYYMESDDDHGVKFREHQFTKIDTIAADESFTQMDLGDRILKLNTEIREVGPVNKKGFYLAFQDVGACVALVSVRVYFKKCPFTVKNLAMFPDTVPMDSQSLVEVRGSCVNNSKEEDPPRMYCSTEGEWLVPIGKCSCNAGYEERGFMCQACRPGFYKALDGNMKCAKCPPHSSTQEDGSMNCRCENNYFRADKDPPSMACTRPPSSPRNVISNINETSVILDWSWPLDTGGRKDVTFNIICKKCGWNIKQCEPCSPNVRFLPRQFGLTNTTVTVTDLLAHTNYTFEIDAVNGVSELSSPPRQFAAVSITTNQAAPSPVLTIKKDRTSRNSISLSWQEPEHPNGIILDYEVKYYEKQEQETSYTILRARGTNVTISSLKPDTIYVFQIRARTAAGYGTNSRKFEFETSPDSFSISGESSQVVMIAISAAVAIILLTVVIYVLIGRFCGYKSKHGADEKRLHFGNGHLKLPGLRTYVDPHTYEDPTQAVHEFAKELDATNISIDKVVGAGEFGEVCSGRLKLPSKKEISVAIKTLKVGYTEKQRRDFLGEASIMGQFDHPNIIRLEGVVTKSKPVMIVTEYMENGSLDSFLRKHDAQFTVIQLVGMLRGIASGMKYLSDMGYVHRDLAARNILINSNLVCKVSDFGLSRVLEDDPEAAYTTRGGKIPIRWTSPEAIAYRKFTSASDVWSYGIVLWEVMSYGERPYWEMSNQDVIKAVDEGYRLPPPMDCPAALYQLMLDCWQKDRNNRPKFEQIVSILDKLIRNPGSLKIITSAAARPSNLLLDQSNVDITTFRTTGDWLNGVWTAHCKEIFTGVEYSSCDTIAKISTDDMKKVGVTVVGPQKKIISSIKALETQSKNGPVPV
Insulin receptor-related protein (Homo sapiens), sequence (P14616 27-742 limits assumed): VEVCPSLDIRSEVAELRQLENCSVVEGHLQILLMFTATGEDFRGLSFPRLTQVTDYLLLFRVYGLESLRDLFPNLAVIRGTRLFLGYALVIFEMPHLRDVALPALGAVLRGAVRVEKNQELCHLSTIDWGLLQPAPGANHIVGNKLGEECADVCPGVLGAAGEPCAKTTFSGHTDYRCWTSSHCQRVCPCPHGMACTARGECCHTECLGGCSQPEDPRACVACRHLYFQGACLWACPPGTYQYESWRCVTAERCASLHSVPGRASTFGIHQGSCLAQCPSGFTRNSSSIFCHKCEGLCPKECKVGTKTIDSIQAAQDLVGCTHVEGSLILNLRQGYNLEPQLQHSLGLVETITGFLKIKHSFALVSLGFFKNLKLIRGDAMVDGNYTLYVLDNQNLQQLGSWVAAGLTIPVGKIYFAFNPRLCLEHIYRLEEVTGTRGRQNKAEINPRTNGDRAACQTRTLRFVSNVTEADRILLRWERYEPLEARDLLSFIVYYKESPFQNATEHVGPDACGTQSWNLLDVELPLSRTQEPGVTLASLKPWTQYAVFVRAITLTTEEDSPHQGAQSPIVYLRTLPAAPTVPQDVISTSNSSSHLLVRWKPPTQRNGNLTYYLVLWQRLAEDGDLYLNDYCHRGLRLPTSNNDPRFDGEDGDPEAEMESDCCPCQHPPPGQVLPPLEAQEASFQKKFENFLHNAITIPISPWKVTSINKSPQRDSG
Insulin receptor-related protein (Homo sapiens), sequence (P14616 747-1297 limits assumed): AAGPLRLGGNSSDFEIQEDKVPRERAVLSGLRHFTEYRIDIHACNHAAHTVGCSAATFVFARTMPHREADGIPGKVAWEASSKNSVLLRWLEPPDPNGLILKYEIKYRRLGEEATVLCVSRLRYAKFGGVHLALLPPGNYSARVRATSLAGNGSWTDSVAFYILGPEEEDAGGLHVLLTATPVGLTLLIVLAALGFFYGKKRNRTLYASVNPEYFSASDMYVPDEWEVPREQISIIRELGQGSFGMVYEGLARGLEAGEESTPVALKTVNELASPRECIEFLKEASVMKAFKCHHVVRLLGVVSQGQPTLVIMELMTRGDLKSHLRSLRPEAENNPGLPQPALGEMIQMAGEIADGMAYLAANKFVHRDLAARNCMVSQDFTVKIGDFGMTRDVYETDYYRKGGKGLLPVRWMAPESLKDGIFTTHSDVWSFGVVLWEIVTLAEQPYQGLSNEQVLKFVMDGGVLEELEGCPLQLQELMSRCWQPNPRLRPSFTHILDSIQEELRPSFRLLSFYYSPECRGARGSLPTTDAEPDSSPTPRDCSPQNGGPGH
Serine/threonine-protein kinase pim-1 (Homo sapiens), sequence (P11309 whole entry, looked up): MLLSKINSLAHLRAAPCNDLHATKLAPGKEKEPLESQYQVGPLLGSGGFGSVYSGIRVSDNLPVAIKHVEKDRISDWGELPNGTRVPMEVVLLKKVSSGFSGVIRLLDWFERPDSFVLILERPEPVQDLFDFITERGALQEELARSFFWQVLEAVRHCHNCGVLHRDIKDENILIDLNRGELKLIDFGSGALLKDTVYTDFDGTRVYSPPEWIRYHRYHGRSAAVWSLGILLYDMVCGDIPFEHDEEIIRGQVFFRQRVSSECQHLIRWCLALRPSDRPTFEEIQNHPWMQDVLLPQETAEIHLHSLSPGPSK

NS(=O)(=O)c1cc(NC(=O)Cc2ccccc2)ccc1Oc1cccc(Cl)c1 [BAY-1797]
residual activity [1]: 78% | residual activity [2]: 71% | residual activity [3]: 100% | residual activity [4]: 97% | residual activity [5]: 89% | residual activity [6]: 74% | residual activity [7]: 72% | residual activity [8]: 87% | residual activity [9]: 100% | residual activity [10]: 100% | residual activity [11]: 69% | residual activity [12]: 100% | residual activity [13]: 68% | residual activity [14]: 100% | residual activity [15]: 93% | residual activity [16]: 88% | residual activity [17]: 76% | residual activity [18]: 59% | residual activity [19]: 95% | residual activity [20]: 87% | inhibition [21]: 0.87% | residual activity [22]: 91% | residual activity [23]: 87% | residual activity [24]: 100% | residual activity [25]: 95% | residual activity [26]: 78% | residual activity [27]: 97% | residual activity [28]: 91% | residual activity [29]: 84% | residual activity [30]: 69% | residual activity [31]: 96% | residual activity [32]: 75% | residual activity [33]: 95% | inhibition [34]: 22.7% | residual activity [35]: 77% | residual activity [36]: 83% | residual activity [37]: 86% | residual activity [38]: 54% | residual activity [39]: 97% | residual activity [40]: 81% | residual activity [41]: 87% | residual activity [42]: 78% | residual activity [43]: 100% | residual activity [44]: 98% | residual activity [45]: 93%

NS(=O)(=O)c1cc(NC(=O)C2(c3ccccc3Cl)CC2)ccc1Oc1cccc(Cl)c1 [BAY-207]
residual activity [1]: 79% | residual activity [2]: 100% | residual activity [3]: 68% | residual activity [4]: 81% | residual activity [5]: 94% | residual activity [6]: 88% | residual activity [7]: 90% | residual activity [8]: 79% | residual activity [9]: 94% | residual activity [10]: 100% | residual activity [11]: 90% | residual activity [12]: 82% | residual activity [13]: 100% | residual activity [14]: 58% | residual activity [15]: 90% | residual activity [16]: 89% | residual activity [17]: 85% | residual activity [18]: 96% | residual activity [19]: 90% | residual activity [20]: 88% | inhibition [21]: 10.5% | residual activity [22]: 61% | residual activity [23]: 86% | residual activity [24]: 95% | residual activity [25]: 100% | residual activity [26]: 100% | residual activity [27]: 68% | residual activity [28]: 100% | residual activity [29]: 100% | residual activity [30]: 81% | residual activity [31]: 64% | residual activity [32]: 91% | residual activity [33]: 96% | inhibition [34]: 8.86% | residual activity [35]: 100% | residual activity [36]: 100% | residual activity [37]: 73% | residual activity [38]: 89% | residual activity [39]: 99% | residual activity [40]: 82% | residual activity [41]: 49% | residual activity [42]: 64% | residual activity [43]: 91% | residual activity [44]: 89% | residual activity [45]: 71%
